Results taken from ChEMBL document CHEMBL1201862, “PubChem BioAssay data set” (2004).
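48-hour exposure; five concentrations; linearly interpolated endpoints. GI50 = concentration required for 50% inhibition of growth.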 Activity calls are given as the source filed them. Cut-off read from the data, not from the text of the source: active = GI50 up to about 1.1 µM and inactive = higher.

Assays:
Assay in all cases: NCI anticancer screen, dose series, 48 h
[1] = tested on: HCT-116
[2] = tested on: SK-MEL-5
[3] = tested on: SNB-19
[4] = tested on: LOX IMVI
[5] = tested on: HCT-15
[6] = tested on: SNB-75
[7] = tested on: RXF 393
[8] = tested on: HCC 2998
[9] = tested on: NCI-H460
[10] = tested on: M19-MEL
[11] = tested on: Malme-3M
[12] = tested on: XF498
[13] = tested on: 786-0
[14] = tested on: UACC-62
[15] = tested on: SW-620
[16] = tested on: CCRF-CEM
[17] = tested on: SNB-78
[18] = tested on: U-251
[19] = tested on: COLO 205
[20] = tested on: TK-10
[21] = tested on: DMS-114
[22] = tested on: NCI-H23
[23] = tested on: SF-295
[24] = tested on: SN12C
[25] = tested on: SF-268
[26] = tested on: DMS-273
[27] = tested on: OVCAR-8
[28] = tested on: HOP-92
[29] = tested on: EKVX
[30] = tested on: M14
[31] = tested on: OVCAR-5
[32] = tested on: SK-OV-3
[33] = tested on: MOLT-4
[34] = tested on: IGROV-1
[35] = tested on: HOP-62
[36] = tested on: SR
[37] = tested on: DLD-1
[38] = tested on: A549
[39] = tested on: KM12
[40] = tested on: CAKI-1
[41] = tested on: SF-539
[42] = tested on: LXFL 529
[43] = tested on: NCI-H226
[44] = tested on: K562
[45] = tested on: NCI-H522
[46] = tested on: UO-31
[47] = tested on: SK-MEL-2
[48] = tested on: HT-29
[49] = tested on: OVCAR-3
[50] = tested on: SK-MEL-28
[51] = tested on: HL-60
[52] = tested on: OVCAR-4
[53] = tested on: RPMI-8226
[54] = tested on: UACC-257
[55] = tested on: HOP-18
[56] = tested on: ACHN
[57] = tested on: A498
[58] = tested on: NCI/ADR-RES
[59] = tested on: MCF7
[60] = tested on: KM-20L2
[61] = tested on: MDA-N
[62] = tested on: MDA-MB-435
[63] = tested on: T47D
[64] = tested on: BT-549
[65] = tested on: PC-3
[66] = tested on: DU-145
[67] = tested on: Hs-578T
[68] = tested on: MDA-MB-231

Measured: GI50

C=CNC(=O)NC(=O)CSc1nc(=O)c(-c2ccccc2NC(=O)C(F)(F)F)n[nH]1
active: [2] 0.569 µM | [6] 0.071 µM
inactive: [1] > 100 µM | [3] 32.2 µM | [4] > 100 µM | [7] > 100 µM | [8] > 100 µM | [9] 48.4 µM | [10] > 100 µM | [11] 15.5 µM | [12] 33.9 µM | [13] 51.2 µM | [14] > 100 µM | [15] > 100 µM | [16] > 100 µM | [17] 25.2 µM | [18] 23.7 µM | [19] 47.5 µM | [20] 68.9 µM | [21] 21.1 µM | [22] 34.8 µM | [23] 50 µM | [24] > 100 µM | [25] 37.4 µM | [26] 43.9 µM | [27] > 100 µM | [28] 21.6 µM | [29] 75 µM | [30] 23.4 µM | [31] > 100 µM | [32] 47.6 µM | [33] > 100 µM | [34] > 100 µM | [35] 94 µM | [36] 84.3 µM | [37] 2.81 µM | [38] > 100 µM | [39] > 100 µM | [40] > 100 µM | [41] 74.6 µM | [42] > 100 µM | [43] 10.7 µM | [44] > 100 µM | [45] 51.6 µM | [46] > 100 µM | [47] > 100 µM | [48] > 100 µM | [49] 38.3 µM | [50] 66.2 µM
> 100 µM: [5]

Cc1ccc2oc(=O)c(-c3ccccc3)nc2c1
25.1 µM: [5]
inactive: [1] 20.6 µM | [2] 30.8 µM | [3] 38.9 µM | [4] 20.2 µM | [6] 37.5 µM | [8] 19.9 µM | [9] 36.3 µM | [10] 23.1 µM | [11] 23.4 µM | [12] 33.7 µM | [13] 23.3 µM | [15] 22 µM | [51] > 10 µM | [16] 18.5 µM | [52] 23.8 µM | [53] 31.5 µM | [19] 24.5 µM | [20] 34 µM | [54] 37.5 µM | [55] 34.2 µM | [22] 24.7 µM | [56] 27.9 µM | [23] 40.5 µM | [24] 31.8 µM | [25] 25.2 µM | [26] 17.6 µM | [27] 36.4 µM | [29] 39.5 µM | [30] 43.3 µM | [31] 39.4 µM | [33] 10.7 µM | [35] 36.7 µM | [36] 29.5 µM | [37] 11.7 µM | [38] 26 µM | [39] 19.6 µM | [40] 28.9 µM | [41] 18.2 µM | [43] 37.8 µM | [44] 24.3 µM | [45] 15.3 µM | [46] 27 µM | [47] 21 µM | [48] 45.6 µM | [49] 46.5 µM | [50] 50.4 µM

COc1ccc2nc3c(C(=O)NCCN(C)C)cccc3cc2c1
2.25 µM: [5]
inactive: [2] 1.64 µM | [3] 2.23 µM | [4] 1.63 µM | [6] 2.17 µM | [7] 1.78 µM | [8] 3.79 µM | [57] 1.36 µM | [12] 1.85 µM | [14] 1.46 µM | [15] 1.42 µM | [51] 1.4 µM | [16] 1.78 µM | [17] 3.76 µM | [18] 3.48 µM | [52] 2.6 µM | [53] 2.16 µM | [54] 2.11 µM | [21] 1.91 µM | [58] 1.41 µM | [59] 1.35 µM | [55] > 100 µM | [22] 2.09 µM | [23] 1.96 µM | [24] 1.75 µM | [25] 2.82 µM | [26] 1.28 µM | [27] 1.47 µM | [28] 2.28 µM | [29] 2.34 µM | [31] 2.1 µM | [32] 2.21 µM | [34] 2.03 µM | [35] 2.63 µM | [37] 2.16 µM | [38] 1.49 µM | [39] 2.96 µM | [41] 3.15 µM | [43] 1.44 µM | [44] 3.07 µM | [46] 1.44 µM | [47] 2.49 µM | [48] 1.29 µM | [50] 2.98 µM
active: [1] 0.908 µM | [9] 0.724 µM | [19] 0.893 µM | [60] 0.562 µM | [33] 0.569 µM | [40] 0.103 µM

CC1(C)N=C(N)N=C(N)N1c1ccc(CCCCc2ccc(S(=O)(=O)F)cc2Cl)c(Cl)c1
2.72 µM: [5]
active: [1] 1.03 µM | [2] 1.05 µM | [9] 0.266 µM | [13] 0.186 µM | [14] 0.258 µM | [51] 0.366 µM | [18] 1.02 µM | [21] 0.458 µM | [61] 0.916 µM | [25] 0.984 µM | [26] 0.352 µM | [65] 1.11 µM | [33] 0.995 µM | [34] 0.39 µM | [36] 0.207 µM | [38] 0.706 µM | [44] 0.425 µM
inactive: [3] 3.64 µM | [4] 1.75 µM | [6] 9.23 µM | [7] 14.2 µM | [8] 5.04 µM | [57] 37.2 µM | [11] 4.05 µM | [12] 1.49 µM | [15] 2.7 µM | [16] 1.62 µM | [17] 11.6 µM | [52] 37.2 µM | [53] 3.05 µM | [19] 5.85 µM | [20] 27.7 µM | [54] 5.56 µM | [58] 143 µM | [59] 2.39 µM | [55] 53.7 µM | [22] 4.07 µM | [56] 2.22 µM | [62] 3.95 µM | [23] 1.84 µM | [24] 1.16 µM | [63] 10.5 µM | [64] 5.26 µM | [27] 4.46 µM | [28] 4.18 µM | [66] 2.85 µM | [29] 36.2 µM | [60] 6.76 µM | [30] 1.63 µM | [31] 17.2 µM | [32] 106 µM | [67] 74 µM | [35] 9.35 µM | [37] 1.57 µM | [39] 2.52 µM | [40] 9.55 µM | [41] 1.67 µM | [43] 18.5 µM | [45] 4.68 µM | [46] 36.1 µM | [68] 10.5 µM | [47] 8.34 µM | [48] 1.53 µM | [49] 5.71 µM | [50] 4.93 µM

NC(=O)c1[nH]nc(C2OC(CO)C(O)C2O)c1O (stereo not given)
inactive: [2] 64.3 µM | [3] 2.6 µM | [6] 101 µM | [7] 8.99 µM | [8] 42.5 µM | [10] 13.2 µM | [57] 60.5 µM | [11] 368 µM | [12] 71.9 µM | [14] 4.38 µM | [17] 37.7 µM | [18] 1.38 µM | [52] 24.7 µM | [19] 16 µM | [20] 91.6 µM | [54] 966 µM | [21] 19.9 µM | [58] 2.68 µM | [59] 1.79 µM | [55] 43 µM | [22] 9.59 µM | [61] 3.39 µM | [62] 15.7 µM | [24] 3.18 µM | [25] 4.57 µM | [63] 5.55 µM | [64] 182 µM | [65] 3.02 µM | [28] 30.5 µM | [29] 52.6 µM | [60] 2.76 µM | [30] 95.3 µM | [31] 183 µM | [32] 84.3 µM | [67] 94 µM | [35] 2.68 µM | [37] 1.45 µM | [39] 10.4 µM | [41] 16.9 µM | [43] 181 µM | [45] 37.2 µM | [46] 4.01 µM | [68] 8.59 µM | [47] 84.7 µM | [49] 19.6 µM | [50] 328 µM
active: [1] 0.548 µM | [4] 0.504 µM | [9] 0.573 µM | [13] 0.5 µM | [15] 0.55 µM | [51] 0.724 µM | [16] 0.507 µM | [53] 0.682 µM | [56] 0.5 µM | [23] 0.851 µM | [26] 0.713 µM | [27] 0.5 µM | [66] 0.5 µM | [33] 0.561 µM | [34] 0.776 µM | [36] 0.5 µM | [38] 0.6 µM | [40] 0.689 µM | [44] 0.5 µM | [48] 0.851 µM
0.5 µM: [5]
